Measurements as given in PubChem BioAssay AID248 (DTP/NCI, 2004).
Values joined by “and” are separate entries in the source; they are usually repeats but may differ in a detail not shown here. Equal values may be shown once. Inconclusive results and toxic doses are left out. No stated cut-off is given here; in the data, active means T/C of 150% or more; inactive means T/C below 125%.

Tested on: L1210 leukemia ip in BDF1 mice, survival T/C
Experiment: NCI In Vivo Anticancer Drug Screen. Data for tumor model L1210 Leukemia (intraperitoneal) in B6D2F1 (BDF1) mice
Details: endpoint: mean survival time, higher = longer survival
Method in brief: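 Transplantable tumor model; survival measured in treated vs vehicle control mice. Value = treated/control.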

[1] = dose: 100.0 mg/kg/injection, schedule: Q01DX009 (ip), vehicle: Klucel (hydroxypropylcellulose) (HPC)
[2] = dose: 200.0 mg/kg/injection, schedule: Q01DX009 (ip), vehicle: Klucel (hydroxypropylcellulose) (HPC)
[3] = dose: 100.0 mg/kg/injection, schedule: Q04DX002 (ip), vehicle: Klucel (hydroxypropylcellulose) (HPC)
[4] = dose: 200.0 mg/kg/injection, schedule: Q04DX002 (ip), vehicle: Klucel (hydroxypropylcellulose) (HPC)
[5] = dose: 400.0 mg/kg/injection, schedule: Q04DX002 (ip), vehicle: Klucel (hydroxypropylcellulose) (HPC)
[6] = dose: 100.0 mg/kg/injection, schedule: Q01DX001 (ip), vehicle: saline
[7] = dose: 400.0 mg/kg/injection, schedule: Q01DX001 (ip), vehicle: saline
[8] = dose: 25.0 mg/kg/injection, schedule: Q01DX009 (ip), vehicle: saline with Tween-80
[9] = dose: 50.0 mg/kg/injection, schedule: Q01DX009 (ip), vehicle: saline with Tween-80
[10] = dose: 100.0 mg/kg/injection, schedule: Q01DX009 (ip), vehicle: saline with Tween-80
[11] = dose: 100.0 mg/kg/injection, schedule: Q04DX003 (ip), vehicle: saline with Tween-80
[12] = dose: 200.0 mg/kg/injection, schedule: Q04DX003 (ip), vehicle: saline with Tween-80
[13] = dose: 400.0 mg/kg/injection, schedule: Q04DX003 (ip), vehicle: saline with Tween-80
[14] = dose: 100.0 mg/kg/injection, schedule: Q01DX001 (ip), vehicle: Klucel (hydroxypropylcellulose) (HPC)
[15] = dose: 200.0 mg/kg/injection, schedule: Q01DX001 (ip), vehicle: Klucel (hydroxypropylcellulose) (HPC)
[16] = dose: 400.0 mg/kg/injection, schedule: Q01DX001 (ip), vehicle: Klucel (hydroxypropylcellulose) (HPC)
[17] = dose: 400.0 mg/kg/injection, schedule: Q01DX009 (ip), vehicle: Klucel (hydroxypropylcellulose) (HPC)

Measured: T/C

[CH3][Sn]([CH3])([Br])[CH2]CCBr
inactive: dose: 0.78 mg/kg/injection, schedule: Q01DX009 (ip), vehicle: saline 100 % of control | dose: 1.56 mg/kg/injection, schedule: Q01DX009 (ip), vehicle: saline 100 % of control

Cc1cc2c(cc1C)[n+]([O-])c1c(=O)[nH]c(=O)nc-1n2CC(O)C(O)C(O)CO (stereo not drawn)
inactive: dose: 100.0 mg/kg/injection, schedule: Q04DX002 (ip), vehicle: saline with Tween-80 98 % of control | dose: 200.0 mg/kg/injection, schedule: Q04DX002 (ip), vehicle: saline with Tween-80 95 % of control

Clc1sc2ccccc2c1Cl
inactive: dose: 50.0 mg/kg/injection, schedule: Q01DX009 (ip), vehicle: Klucel (hydroxypropylcellulose) (HPC) 103 % of control | [1] 95 % of control

N#Cc1[nH]cnc1NN=NCCCl
inactive: dose: 12.5 mg/kg/injection, schedule: Q01DX001 (ip), vehicle: saline with Tween-80 109 % of control | dose: 25.0 mg/kg/injection, schedule: Q01DX001 (ip), vehicle: saline with Tween-80 104 % of control | dose: 50.0 mg/kg/injection, schedule: Q01DX001 (ip), vehicle: saline with Tween-80 116 % of control | dose: 100.0 mg/kg/injection, schedule: Q01DX001 (ip), vehicle: saline with Tween-80 118 % of control

O=C(COc1ccc(Cl)cc1)Nc1ccc[n+](Cc2ccc(S(=O)(=O)F)cc2)c1
inactive: [1] 105 % of control | [2] 101 % of control

COc1cccc(OC)c1C(=O)O
inactive: [3] 100 % of control | [4] 111 % of control | [5] 100 % of control

CN(CC(=O)O)C(=O)CN=Cc1ccccc1
inactive: dose: 100.0 mg/kg/injection, schedule: Q04DX003 (ip), vehicle: saline 96 % of control | dose: 200.0 mg/kg/injection, schedule: Q04DX003 (ip), vehicle: saline 97 % of control | dose: 400.0 mg/kg/injection, schedule: Q04DX003 (ip), vehicle: saline 97 % of control

COc1cc(OC)c(OC)cc1CNC1CCCCCCC1
inactive: dose: 25.0 mg/kg/injection, schedule: Q04DX002 (ip), vehicle: saline 102 % of control | dose: 50.0 mg/kg/injection, schedule: Q04DX002 (ip), vehicle: saline 91 % of control | dose: 100.0 mg/kg/injection, schedule: Q04DX002 (ip), vehicle: saline 105 % of control and 115 % of control

O=C(O)/C(Br)=C\c1cccc([N+](=O)[O-])c1
inactive: [6] 107 % of control | dose: 200.0 mg/kg/injection, schedule: Q01DX001 (ip), vehicle: saline 98 % of control | [7] 109 % of control

CN=C(c1ccc(NC(=O)c2ccc(C(=O)Nc3ccc(C(=NC)N4CCOCC4)cc3)c(Cl)c2)cc1)N1CCOCC1
inactive: dose: 0.94 mg/kg/injection, schedule: Q01DX Z (ip), vehicle: carboxymethylcellulose (CMC) 104 % of control | dose: 1.87 mg/kg/injection, schedule: Q01DX Z (ip), vehicle: carboxymethylcellulose (CMC) 101 % of control | dose: 3.75 mg/kg/injection, schedule: Q01DX Z (ip), vehicle: carboxymethylcellulose (CMC) 98 % of control | dose: 7.5 mg/kg/injection, schedule: Q01DX Z (ip), vehicle: carboxymethylcellulose (CMC) 87 % of control | dose: 15.0 mg/kg/injection, schedule: Q01DX Z (ip), vehicle: carboxymethylcellulose (CMC) 91 % of control | dose: 30.0 mg/kg/injection, schedule: Q01DX Z (ip), vehicle: carboxymethylcellulose (CMC) 91 % of control | dose: 60.0 mg/kg/injection, schedule: Q01DX Z (ip), vehicle: carboxymethylcellulose (CMC) 91 % of control

O=C(CC(C(=O)Nc1ccccc1)C(O)(c1ccccc1)c1ccccc1)Nc1ccccc1 (stereo not drawn)
inactive: dose: 100.0 mg/kg/injection, schedule: Q01DX001 (ip), vehicle: carboxymethylcellulose (CMC) 95 % of control | dose: 200.0 mg/kg/injection, schedule: Q01DX001 (ip), vehicle: carboxymethylcellulose (CMC) 91 % of control | dose: 400.0 mg/kg/injection, schedule: Q01DX001 (ip), vehicle: carboxymethylcellulose (CMC) 95 % of control

CC(=O)NC(CSCc1c2ccccc2c(C)c2ccccc12)C(=O)O (stereo not drawn)
inactive: [8] 97 % of control | [9] 101 % of control | [10] 97 % of control and 92 % of control | [11] 94 % of control | dose: 200.0 mg/kg/injection, schedule: Q01DX009 (ip), vehicle: saline with Tween-80 88 % of control | [12] 96 % of control | [13] 96 % of control

O=C1CCCC(=O)NNC(=O)Nc2ccc(cc2)-c2ccc(cc2)NC(=O)NN1
inactive: dose: 50.0 mg/kg/injection, schedule: Q01DX001 (ip), vehicle: saline 104 % of control | [6] 104 % of control | [7] 96 % of control

NN(C(=O)c1ccccc1)c1ccccc1
inactive: dose: 75.0 mg/kg/injection, schedule: Q01DX001 (ip), vehicle: carboxymethylcellulose (CMC) 93 % of control | dose: 150.0 mg/kg/injection, schedule: Q01DX001 (ip), vehicle: carboxymethylcellulose (CMC) 98 % of control | dose: 300.0 mg/kg/injection, schedule: Q01DX001 (ip), vehicle: carboxymethylcellulose (CMC) 95 % of control

COc1ccc(NC(=O)Nc2cc(C(F)(F)F)ccc2Cl)cc1
inactive: [11] 88 % of control | [12] 91 % of control | [13] 86 % of control

CC(C)=NNC(=O)Nc1ccc(C)c(Cl)c1
inactive: dose: 50.0 mg/kg/injection, schedule: Q01DX001 (ip), vehicle: Klucel (hydroxypropylcellulose) (HPC) 90 % of control | [14] 103 % of control and 90 % of control | [1] 102 % of control | [3] 101 % of control and 86 % of control | [15] 92 % of control | [2] 93 % of control | [4] 98 % of control and 100 % of control | [16] 87 % of control | [17] 86 % of control | [5] 95 % of control and 89 % of control

CCCCCCc1c(C)nc(N)[nH]c1=O
inactive: [14] 92 % of control | [1] 105 % of control | [15] 89 % of control | [2] 100 % of control | [16] 92 % of control | [17] 97 % of control

COc1cccc2c(=O)c(COC(C)=O)c(C)[nH]c12
inactive: dose: 12.5 mg/kg/injection, schedule: Q01DX009 (ip), vehicle: saline with Tween-80 100 % of control | [8] 100 % of control | [9] 98 % of control | [10] 106 % of control

CCOC(=O)c1nc2c(C)nc(N)nc2[nH]c1=O
inactive: [14] 107 % of control | [15] 111 % of control | [16] 96 % of control

O=C(Cc1ccc([N+](=O)[O-])cc1)Nc1cccc(O)c1
inactive: dose: 100.0 mg/kg/injection, schedule: Q04DX003 (ip), vehicle: Klucel (hydroxypropylcellulose) (HPC) 97 % of control | dose: 200.0 mg/kg/injection, schedule: Q04DX003 (ip), vehicle: Klucel (hydroxypropylcellulose) (HPC) 108 % of control | dose: 400.0 mg/kg/injection, schedule: Q04DX003 (ip), vehicle: Klucel (hydroxypropylcellulose) (HPC) 101 % of control

O=C(Nc1ccc(Cl)c(Cl)c1)C(Cl)Cl
inactive: [3] 109 % of control | [5] 103 % of control

COc1cc(C)c(O)c(C[P+](c2ccccc2)(c2ccccc2)c2ccccc2)c1
inactive: [11] 91 % of control | [12] 94 % of control

O=[N+]([O-])c1ccc(NCSc2ccc(Cl)cc2)cc1
inactive: dose: 100.0 mg/kg/injection, schedule: Q04DX003 (ip), vehicle: other 101 % of control | dose: 200.0 mg/kg/injection, schedule: Q04DX003 (ip), vehicle: other 106 % of control | dose: 400.0 mg/kg/injection, schedule: Q04DX003 (ip), vehicle: other 108 % of control
